Usually Kd stands for the concentration at which binding is half-saturated.

Substitutions are numbered along the chain they refer to.

The source of these data is article PMC4595607, “mRNA export through an additional cap-binding complex consisting of NCBP1 and NCBP3” (Nature Communications, 2015).

For series [1], the target named is T1, NCBP3 (aa 1-282); C17orf85 (Homo sapiens, UniProt Q53F19).
T1 construct: N-terminal fragment 1-282 with core RRM; expressed in E. coli BL21-AI, purified; untagged for MST and CD (MBP/His construct cloned)
T1 sequence (Q53F19 1-282): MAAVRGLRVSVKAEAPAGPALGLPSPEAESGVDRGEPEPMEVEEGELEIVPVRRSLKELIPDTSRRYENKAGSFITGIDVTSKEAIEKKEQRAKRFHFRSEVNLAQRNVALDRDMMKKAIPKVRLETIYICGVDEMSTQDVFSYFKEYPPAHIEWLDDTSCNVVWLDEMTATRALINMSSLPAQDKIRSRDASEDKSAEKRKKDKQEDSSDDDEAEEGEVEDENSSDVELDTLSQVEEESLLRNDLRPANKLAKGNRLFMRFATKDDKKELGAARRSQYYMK
Briefly: affinity purification on m7GTP-agarose, Coomassie SDS-PAGE. Format: binding. Conditions: compound immobilised as γ-aminohexyl m7GTP-agarose.

Series [2] addresses T2, recombinant NCBP3 from E. coli lysates (Homo sapiens, UniProt Q53F19).
T2 construct: full-length, N-terminal His tag (pETG10A-NCBP3; MBP/His version also made), E. coli BL21-AI lysate
T2 sequence (Q53F19 1-620): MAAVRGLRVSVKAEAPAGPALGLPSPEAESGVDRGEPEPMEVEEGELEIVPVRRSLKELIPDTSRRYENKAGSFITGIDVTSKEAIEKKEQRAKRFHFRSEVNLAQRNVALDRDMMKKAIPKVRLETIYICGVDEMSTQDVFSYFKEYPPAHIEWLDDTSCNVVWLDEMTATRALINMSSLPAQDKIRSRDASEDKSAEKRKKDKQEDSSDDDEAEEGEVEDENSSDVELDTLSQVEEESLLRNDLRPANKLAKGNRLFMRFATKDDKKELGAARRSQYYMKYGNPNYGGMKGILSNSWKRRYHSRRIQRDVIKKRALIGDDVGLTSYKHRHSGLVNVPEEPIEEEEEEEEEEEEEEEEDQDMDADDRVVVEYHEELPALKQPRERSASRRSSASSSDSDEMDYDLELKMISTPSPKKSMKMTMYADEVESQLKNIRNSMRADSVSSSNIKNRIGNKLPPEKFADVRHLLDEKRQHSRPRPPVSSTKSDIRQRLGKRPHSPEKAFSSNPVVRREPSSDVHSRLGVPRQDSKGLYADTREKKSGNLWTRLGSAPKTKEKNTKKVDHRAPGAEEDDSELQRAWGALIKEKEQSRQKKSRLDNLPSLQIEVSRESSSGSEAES
Briefly: affinity purification on m7GTP-agarose from E. coli lysate, western blot. Format: biochemical. Conditions: compound immobilised as γ-aminohexyl m7GTP-agarose. In general terms: A western blot detects proteins with antibodies after separation by electrophoresis.

Series [3] has as its target T3, NCBP3 (aa 1-282); C17orf85 (Homo sapiens, UniProt Q53F19, W155A/D157A/D158A).
T3 construct: N-terminal fragment 1-282 with core RRM; expressed in E. coli BL21-AI, purified; untagged for MST and CD (MBP/His construct cloned)
T3 sequence (Q53F19 1-282 W155A/D157A/D158A): T1 sequence (Q53F19 1-282) with W155A, D157A, D158A
Briefly: affinity purification on m7GTP-agarose, Coomassie SDS-PAGE. Format: binding. Conditions: compound immobilised as γ-aminohexyl m7GTP-agarose; WLDD motif mutant (ALAA).

In series [4] the test system is NCBP3 1-282 (RRM fragment) (Homo sapiens). As to the kind of experiment: MST. Conditions: 5' m7G cap (CAP0); 3' amino linker; MST: equal volumes of MST-1 (50 mM Tris-HCl pH 7.4, 150 mM NaCl, 10 mM MgCl2, 0.05% Tween-20; RNA 50 nM) and MST-2 (20 mM Tris-HCl pH 7.4, 300 mM NaCl, 5% …).

For `C[n+]1cn([C@@H]2O[C@H](COP(=O)(O)OP(=O)(O)OP(=O)(O)O)[C@@H](O)[C@H]2O)c2nc(N)[nH]c(=O)c21` [m^7GTP], the “affinity purification on m7GTP-agarose, Coomassie SDS-PAGE” value in series [1] is recorded as “recombinant NCBP3 selectively bound m^7GTP but not GTP”. Besides, the “affinity purification on m7GTP-agarose from E. coli lysate, western blot” value in series [2] is “m^7GTP versus GTP-affinity purification and western blotting of recombinant NCBP3 from E. coli lysates”. In series [3], the loss of binding entry is “mutation of the NCBP3 WLDD motif to ALAA resulted in loss of binding”.

CAP-RNA oligo (CAP0), DyLight gave a Kd in series [4] of 15.8 µM.
